Experimental data reported in patent US20090170762A1, “Treatment of Diabetes Related Obesity” (UUTech Limited, priority 2005, published 2009).
“Also recorded” adds a separate entry of the source. Ends that are not written are not given here.

Tested on: ob/ob mice
Experiment: Daily (Pro3)GIP for 60 days in young ob/ob mice
Format: in vivo, mouse
Protocol: Young obese diabetic (ob/ob) mice derived from the colony maintained at Aston University, UK (Bailey, C. J. et al., 1982, Int. J. Obes. 6:11-21) were used at 5-7 weeks of age. Normal lean control mice from the same colony were used in comparative experiments (See Example 6, below). Animals were age-matched, divided into groups and housed individually in an air-conditioned room at 22±2° C. with a 12 hours light:12 hours dark cycle (08:00-20:00 hours). Drinking water and a standard rodent maintenance diet (Trouw Nutrition, Cheshire, UK) were freely available. In a separate experiment, Swiss Tylers Original (TO) mice purchased from Harlan Ltd. (Bicester, UK) were used at 5-7 weeks of age. Animals were housed as for ob/ob mice and given drinking water ad libitum. Normal TO mice were allowed free access to fed high fat diet (45% fat, 20% protein, 35% carbohydrate, 26.15 MJ/kg), high carbohydrate diet (10% fat, 20% protein, 70% carbohydrate, 18.80 MJ/kg) (Special Diets Service, Witham, Essex, UK), cafeteria diet (corresponding to approximately 33% fat, 19% protein, 48% carbohydrate, 16.39 MJ/kg) or normal rodent maintenance diet (10% fat, 30% protein, 60% carbohydrate; 14.2 MJ/kg, Trouw Nutrition, Cheshire, UK). The cafeteria diet comprised 6 daily rotations of 2 palatable food items per day (2 from: tuna, peanut butter, crisps, chocolate biscuits, madera cake, chocolate, luncheon meat, sausages, corned beef, cheese, marzipan). All animal experiments were carried out in accordance with the UK Animals (Scientific Procedures) Act 1986.
Food intake and body weight were recorded daily while plasma glucose and insulin concentrations were monitored at intervals of 3-6 days. Whole blood for the measurement of glycated hemoglobin was taken on day 60. In addition, plasma samples for measurement of cholesterol, circulating triglycerides, HDL-cholesterol (HDL-C) and LDL-cholesterol (LDL-C) were taken on day 60. […] Mice fasted for 18 hours were used to examine the metabolic response to 15 minutes feeding on day 60. In a separate series, pancreatic tissues were excised at the end of the 60-day treatment period and processed for immunohistochemistry or measurement of insulin following extraction with 5 ml/g of ice-cold acid ethanol (750 ml ethanol, 235 ml water, 15 ml concentrated HCl). Blood samples taken from the cut tip of the tail vein of conscious mice at the times indicated in the Figures were immediately centrifuged using a Beckman microcentrifuge (Beckman instruments, UK) for 30 seconds at 13,000×g. The resulting plasma was then aliquoted into fresh Eppendorf tubes and stored at −20° C. prior to glucose and insulin determinations. Normal control mice from the same genetic background were used for comparative purposes. […] Body weights were recorded daily and blood for determination of glycated hemoglobin was collected at end of study period.
Plasma glucose was assayed by an automated glucose oxidase procedure (Stevens, J. F., 1971, Clin. Chem. Acta 32:199-201) using a Beckman Glucose Analyzer II (Beckman Instruments, Galway, Ireland). Plasma and pancreatic insulin were assayed by a modified dextran-coated charcoal radioimmunoassay (Flatt, P. R., Bailey, C. J., 1981, Diabetologia 20:573-577). Plasma triglyceride and cholesterol levels were measured using a Hitachi Automatic Analyser 912 (Boehringer Mannheim, Germany). Glycated hemoglobin was determined using a commercially available kit purchased from Chirus Ltd. (Watford, UK).
Results are expressed as mean±SEM. Data were compared using ANOVA, followed by a Student-Newman-Keuls post hoc test. Area under the curve (AUC) analyzes were calculated using the trapezoidal rule with baseline subtraction. P<0.05 was considered to be statistically significant.

## YAPGTFISDYSIAMDKIHQQDFVNWLLAQKGKKNDWKHNITQ [(Pro^3)GIP]
5-7 weeks old ob/ob mice, standard diet, 60 days
  body weight gain: progressive decrease in body weight gain
18 h fasted ob/ob mice, 60 days, vs saline
  plasma insulin levels after 15 minute feeding: not significantly different
18 h fasted ob/ob mice, 60 days, 15, 30, 60 and 105 min
  plasma glucose responses to 15 minute feeding: significantly lowered
ob/ob mice, 25 nmol/kg/day i.p., 60 days, vs saline, did not reach significance
  decrease in body weight: ~17%
ob/ob mice, 25 nmol/kg/day, 60 days, vs saline
  effect on food intake: no effect; also recorded: without changing food intake
ob/ob mice, 60 days, vs saline
  cholesterol levels: unaltered
  circulating triglyceride concentrations: significantly (P<0.05) reduced
  enhanced insulin sensitivity: 1.5 fold
  lowering of overall plasma glucose response to feeding: 1.7 fold
  lowering of overall plasma glucose response to intraperitoneal glucose load: 1.9 fold
  pancreatic insulin content: significantly (P<0.01) decreased
  pancreatic weight: no effect
  reduced pancreatic insulin content: 1.5 fold
ob/ob mice, 60 days, vs saline, LDL-C calculated by Friedewald equation
  levels of LDL-C: significantly reduced
ob/ob mice, 60 days, 0, 15, 30 and 60 min after glucose 18 mmol/kg
  plasma glucose concentrations following intraperitoneal glucose: significantly reduced
ob/ob mice, 60 days, 15 min after glucose 18 mmol/kg
  plasma insulin concentrations following intraperitoneal glucose: significantly (P<0.05) reduced
ob/ob mice, 60 days, insulin 50 U/kg i.p.
  hypoglycemic action of insulin (insulin sensitivity): significantly (P<0.05) augmented
ob/ob mice, 60 days, native GIP 25 nmoles/kg
  overall glycaemic excursion and insulinotropic response to glucose together with native GIP: significant decrease
ob/ob mice, after 60 days treatment
  glycated hemoglobin: 4.1±0.1%
ob/ob mice, day 14 to day 60, vs saline
  non-fasting plasma glucose: significantly reduced
ob/ob mice, day 44, vs saline
  non-fasting plasma insulin: significantly lowered
